Here are results for one molecule from patent US6632829B2, “Sulfonamides and derivatives thereof that modulate the activity of endothelin” (Texas Biotechnology Corp., priority 1996, dated 2003).

One data set concerns the target T1, human ETB receptor (Homo sapiens, UniProt P24530).
T1 construct: expressed in transfected cells; host or cells: COS7 cells
T1 sequence (P24530 27-442): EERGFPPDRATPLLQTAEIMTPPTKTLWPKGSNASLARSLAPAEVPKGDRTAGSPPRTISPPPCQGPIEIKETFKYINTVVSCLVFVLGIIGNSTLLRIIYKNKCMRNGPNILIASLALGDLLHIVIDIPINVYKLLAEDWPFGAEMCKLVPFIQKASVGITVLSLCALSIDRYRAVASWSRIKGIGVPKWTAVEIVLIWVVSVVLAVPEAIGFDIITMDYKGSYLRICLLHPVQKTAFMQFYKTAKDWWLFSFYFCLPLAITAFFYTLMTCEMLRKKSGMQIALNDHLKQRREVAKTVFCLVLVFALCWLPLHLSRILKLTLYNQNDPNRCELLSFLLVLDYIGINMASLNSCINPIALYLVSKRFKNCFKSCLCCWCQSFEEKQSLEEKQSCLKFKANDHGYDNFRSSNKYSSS
Nature of the data set: Endothelin binding inhibition, Binding Test #2: competition with 125I-ET-1 for ETB receptors on transfected COS7 cell membranes. The note with it: incubation at 24° C. (values marked †). An outline of the steps: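 Membranes from COS7 cells transfected with human ETB receptor, prepared in HEPES pH 7.4 with aprotinin, MnCl2/DNase treatment at 37° C for 30 min. Test compounds compete with 125I-labeled ET-1 for receptor binding; membrane used at 1 μg/50 μL binding buffer.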

Data set [1] can be described thus: Oral half-life and peak plasma levels. Format: in vivo. From the text: As used herein, bioavailability refers to the rate and extent of absorption. Methods for determining bioavailability are well known to those of skill in the art. For example, bioavailability of any of the compounds described herein can be determined empirically by administration of the compound to an animal, followed by taking blood samples over time and measuring the blood concentration of the compound. In vivo half life (t1/2) is defined as the time it takes for the concentration of the compound in the blood to be reduced by one-half. Estimations of the area under the curve for intravenous administration can be used to estimate the area under the curve for oral administration, ylelding bioavailability data. See, e.g., Milo Gibal (1991) Biopharmaceutics and Pharmacology, 4th edition (Lea and Sediger).
Table 2 lists oral half-life, bioavailability, and in vivo activity of selected exemplary compounds. The in vivo activity was measured in a pulmonary hypertension model and is a measure of the activity of the compounds at selected dosages.

Data set [2] concerns Pulmonary Hypertension model. Briefly: Pulmonary Hypertension model. Also noted: key: ++: effective at 5 mg/kg; −: no effect at 5 mg/kg; +: effective at 15 mg/kg. The format is in vivo, rat. As for the experimental part:
As used herein, efficacy refers to the maximal effect that can be produced by a compound. Efficacy can be determined by methods known to those of skill in the art. For example, it can be determined by the properties of the compound and its receptor-effector system and is reflected in the plateau of the concentration-effect curve. In vivo efficacy refers to efficacy which is determined in an animal model. For example, in vivo efficacy of the compounds described herein can be determined by hypoxia-induced pulmonary hypertension in rat. See, e.g., DiCarlo et al. (1995) Am. J. Physiol. 269:[…]-[…]. Table 2 lists oral half-life, bioavailability, and in vivo activity of selected exemplary compounds. The in vivo activity was measured in a pulmonary hypertension model and is a measure of the activity of the compounds at selected dosages.

The subject of a further data set is hypertensive rat model. Nature of the data set: Deoxycorticosterone acetate (DOCA)-salt hypertensive rat model. The format is in vivo. As for the experimental part: Selected compounds disclosed herein have been tested for activity in the deoxycorticosterone acetate (DOCA)-salt hypertensive rat model. To perform these tests, silastic MDX4-4210 elastomer implants containing 47 mg (DOCA) were prepared according to the method of Ornmsbee et al. ((1973) the J. Pharm. Sci. 62:255-257). Briefly, DOCA is incorporated into silicon rubber implants for sustained release. To prepare the implants the DOCA is incorporated into unpolymerized silicone rubber, catalyst is added and the mixture is cast in a hemicylindrical shape.
Sprague Dawley rats (7-8 weeks old) were unilaterally nephrectomized under ketamine anesthesia and a DOCA-implant was placed on the left lateral dorsal abdomen of the animal. The rats were allowed to recover for three weeks. During recovery they were permitted free access to normal rat chow and 0.9% NaCl drinking solution in place of drinking water. The rats develop hypertension within 3 weeks. […]
On the day of experimentation, catheters were inserted under brevital anesthesia into the right femoral artery for measurement of blood pressure, and into the right femoral vein for administration of a selected compound. The animals were placed in a restrainer and allowed to recover for a minimum of 60 min or until a steady mean arterial blood pressure was recorded. […] Blood pressure was recorded continuously for a further 10 hrs.

Usually IC50 stands for the point on the concentration scale where inhibition reaches its midpoint. The molecule `Cc1cc(C)c(NC(=O)c2sccc2S(=O)(=O)Nc2onc(C)c2Cl)c(C)c1O` [N-(4-chloro-3-methyl-5-isoxazolyl)-2-(3-hydroxy-2,4,6-trimethylphenylaminocarbonyl)thiophene-3-sulfonamide] displayed a half-inhibitory concentration (IC50) on human ETB receptor of 18.7 µM. Further, in data set [1] (oral), the “POt½ in Rat” value amounted to 7 h. Also, in data set [1] (rat, in vivo), the “Peak Plasma Levels” value is 5.6 µg/mL. For the same molecule, the “in vivo Efficacy” value in data set [2] is “++”. In addition, the “decrease of blood pressure” value with hypertensive rat model is listed as “effective in decreasing blood pressure”.
